Data taken from paper PMC8881573, “Inhibition of SRP-dependent protein secretion by the bacterial alarmone (p)ppGpp” (Nature Communications, 2022).

Legend:
(Bs)Ffh-NG = target: T1, (Bs)Ffh-NG (Bacillus subtilis, UniProt P37105); experiment: Microscale thermophoresis (MST) ligand binding; parameters: species or system B. subtilis; details: NG domain labeled with NT 647, 21 °C
T1 construct: purified NG domains of (Ec)Ffh, (Ec)FtsY and (Bs)Ffh; His6 (N); made in house; host or cells: E. coli Rosetta pLysS
T1 sequence (P37105 1-297 limits assumed): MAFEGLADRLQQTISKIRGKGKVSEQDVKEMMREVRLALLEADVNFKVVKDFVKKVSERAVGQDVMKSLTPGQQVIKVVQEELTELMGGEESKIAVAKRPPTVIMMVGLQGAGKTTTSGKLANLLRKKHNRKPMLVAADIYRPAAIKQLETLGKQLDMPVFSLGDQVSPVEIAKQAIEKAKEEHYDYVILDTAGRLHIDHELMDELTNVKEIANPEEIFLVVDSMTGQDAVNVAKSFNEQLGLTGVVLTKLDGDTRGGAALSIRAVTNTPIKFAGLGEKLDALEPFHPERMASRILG
Description: Ligand binding assays with purified NG domains of (Ec)Ffh, (Ec)FtsY and (Bs)Ffh proteins were carried out by microscale thermophoresis (MST)[80]. All experiments were performed on a Monolith NT.115 (NanoTemper Technologies GmbH, Munich, Germany; software: NanoTemper Control Version 2.0.2.29) at 21 °C (red LED power was set to 50–100% and infrared laser power to 75%). After labeling of primary amines within (Ec)Ffh, (Ec)FtsY, and (Bs)Ffh (50 µM each) with the dye NT 647 (according to the manufacturers protocol), the proteins were re-buffered in SEC buffer containing 20 mM HEPES-Na, 20 mM KCl, 20 mM MgCl2, 200 mM NaCl (final pH 7.5), 10 mg ml^−1 BSA and 0.007% Tween. Two-hundred nanomolar of (Ec)Ffh, (Ec)FtsY, and (Bs)Ffh were titrated with GDP, GTP, ppGpp, and pppGpp starting from a concentration ranging between 0.75 and 3 mM, respectively. At least six independent MST experiments per ligand and protein were recorded at 680 nm and analyzed using NanoTemper Analysis version 1.5.37 and 1.2.009, and Origin8G software suits.

[1] = system: SRP-dependent membrane insertion of YohP into INV; experiment: Post-translational YohP insertion into inverted inner membrane vesicles (INV), proteinase K resistance; assay type: biochemical, E. coli; details: at 0.6 mM (p)ppGpp, 10 µM GTP
Description: For protein transport assay, YohP cloned in pET19b was synthesized in vitro using a purified transcription/translation system composed of cytosolic translation factors (CTF) and high salt-washed ribosomes[35],[36]. The ^35S-Methionine/^35S-Cysteine labeling mix was obtained from Perkin Elmer (Wiesbaden, Germany). INVs of E. coli cells were prepared by sucrose gradient centrifugation of cell extracts as described[76] and resuspended in INV buffer (50 mM triethanolamine acetate, pH 7.5, 200 mM sucrose, 1 mM DTT). […] The supernatant containing YohP was then incubated with INV, liposomes or SecYEG-proteoliposomes for 10 min at 37 °C in the presence of 10 µM GTP. […] Next, the samples were denatured at 56 °C for 10 min in 35 μL of TCA loading dye (prepared by mixing one part of solution III (1 M dithiothreitol) with 4 parts of solution II (6.33% (w/v) SDS, 0.083 M Tris, 30% (v/v) glycerol and 0.053% (w/v) bromophenol blue) and 5 parts of solution I (0.2 M Tris, 0.02 M EDTA pH 8)) and analyzed after separation on a modified SDS-PAGE[35] by phosphor imaging. For quantification of YohP insertion, autoradiography samples were analyzed by using the ImageQuant (GE Healthcare) software. […] Mean values and SEM values were determined by using either Excel (Microsoft Corp.) or GraphPad Prism (GraphPad Prism Corp. San Diego). […]

GTPase RbgA = target: GTPase RbgA; parameters: method as in PMID 30366986; details: read-out: inhibitor constant Ki; cited from earlier work

Row | SMILES | Kd ((Bs)Ffh-NG) | YohP insertion into INV [1] | Ki (GTPase RbgA)
1 | Nc1nc2c(ncn2[C@@H]2O[C@H](COP(=O)(O)OP(=O)(O)O)[C@@H](OP(=O)(O)OP(=O)(O)O)[C@H]2O)c(=O)[nH]1 [ppGpp] | 32.2 ± 7.5 µM | complete block of insertion | 300 µM
2 | Nc1nc2c(ncn2[C@@H]2O[C@H](COP(=O)(O)OP(=O)(O)OP(=O)(O)O)[C@@H](OP(=O)(O)OP(=O)(O)O)[C@H]2O)c(=O)[nH]1 [pppGpp] | 27.2 ± 9.8 µM | complete block of insertion | 500 µM
